Experimental data published in ChEMBL document CHEMBL3885881, “DrugMatrix”.

Organism: Rattus norvegicus
Assay: DrugMatrix - Regimen: Daily Repeat
Assay type: toxicity, organism-based, Sprague-Dawley
Design: regimen Daily Repeat, gender Male, age 6-8 weeks
Conditions: in vivo, po, route oral GAVAGE, vehicle .5 % CMC; for BASOPHIL / EOSINOPHIL / ERYTHROCYTE COUNT / HEMATOCRIT / HEMOGLOBIN / LEUKOCYTE COUNT / LYMPHOCYTE / MEAN CORPUSCULAR HEMOGLOBIN / MEAN CORPUSCULAR HEMOGLOBIN CONCENTRATION / MEAN CORPUSCULAR VOLUME / MONOCYTE / NEUTROPHIL / PLATELET COUNT: tissue Blood; for ALANINE AMINOTRANSFERASE / ALBUMIN / ALKALINE PHOSPHATASE / ASPARTATE AMINOTRANSFERASE / BLOOD UREA NITROGEN / CHLORIDE / CHOLESTEROL / CREATINE PHOSPHOKINASE / CREATININE / GLUCOSE / PHOSPHORUS / POTASSIUM / SODIUM / TOTAL BILIRUBIN / TOTAL PROTEIN: tissue Plasma
[1] = 0 mg/kg, 72 h, dose level Control, time 3 day
[2] = 0 mg/kg, 120 h, dose level Control, time 5 day
[3] = 41 mg/kg, 72 h, dose level High, time 3 day
[4] = 41 mg/kg, 120 h, dose level High, time 5 day
[5] = […], 72 h, dose 4.1 mg/Kg, dose level Low, time 3 day
[6] = […], 120 h, dose 4.1 mg/Kg, dose level Low, time 5 day

O=C1c2ccccc2C(=O)C1c1ccccc1 [PHENINDIONE]
BASOPHIL [1]: 0.68%
EOSINOPHIL [1]: 0.46%
ERYTHROCYTE COUNT [1]: 7.15 x10E6/uL
HEMATOCRIT [1]: 45.44%
HEMOGLOBIN [1]: 14.1 G/DL
LEUKOCYTE COUNT [1]: 9.78 x10E3/uL
LYMPHOCYTE [1]: 84.44%
MEAN CORPUSCULAR HEMOGLOBIN [1]: 19.72 pg
MEAN CORPUSCULAR HEMOGLOBIN CONCENTRATION [1]: 31 G/DL
MEAN CORPUSCULAR VOLUME [1]: 63.66 fL
MONOCYTE [1]: 2.14%
NEUTROPHIL [1]: 11.16%
PLATELET COUNT [1]: 1378.2 x10E3/uL
ALANINE AMINOTRANSFERASE [1]: 42.33 u/L
ALBUMIN [1]: 3.8 G/DL
ALKALINE PHOSPHATASE [1]: 388.17 u/L
ASPARTATE AMINOTRANSFERASE [1]: 68 u/L
BLOOD UREA NITROGEN [1]: 16.17 mg/dL
CHLORIDE [1]: 96.67 MEQ/L
CHOLESTEROL [1]: 71 mg/dL
CREATINE PHOSPHOKINASE [1]: 156.17 u/L
CREATININE [1]: 0.57 mg/dL
GLUCOSE [1]: 193.67 mg/dL
PHOSPHORUS [1]: 11.43 mg/dL
POTASSIUM [1]: 7 MEQ/L
SODIUM [1]: 140.33 MEQ/L
TOTAL BILIRUBIN [1]: 0.48 mg/dL
TOTAL PROTEIN [1]: 6.8 G/DL
BASOPHIL [2]: 1.47%
EOSINOPHIL [2]: 1%
ERYTHROCYTE COUNT [2]: 7.12 x10E6/uL
HEMATOCRIT [2]: 45.47%
HEMOGLOBIN [2]: 14.1 G/DL
LEUKOCYTE COUNT [2]: 11.38 x10E3/uL
LYMPHOCYTE [2]: 82.57%
MEAN CORPUSCULAR HEMOGLOBIN [2]: 19.82 pg
MEAN CORPUSCULAR HEMOGLOBIN CONCENTRATION [2]: 31.02 G/DL
MEAN CORPUSCULAR VOLUME [2]: 63.88 fL
MONOCYTE [2]: 2.2%
NEUTROPHIL [2]: 11.97%
PLATELET COUNT [2]: 1267 x10E3/uL
ALANINE AMINOTRANSFERASE [2]: 38 u/L
ALBUMIN [2]: 3.72 G/DL
ALKALINE PHOSPHATASE [2]: 391 u/L
ASPARTATE AMINOTRANSFERASE [2]: 65.83 u/L
BLOOD UREA NITROGEN [2]: 14.17 mg/dL
CHLORIDE [2]: 107.67 MEQ/L
CHOLESTEROL [2]: 61 mg/dL
CREATINE PHOSPHOKINASE [2]: 148.33 u/L
CREATININE [2]: 0.57 mg/dL
GLUCOSE [2]: 177.17 mg/dL
PHOSPHORUS [2]: 12.07 mg/dL
POTASSIUM [2]: 7.2 MEQ/L
SODIUM [2]: 151.5 MEQ/L
TOTAL BILIRUBIN [2]: 0.58 mg/dL
TOTAL PROTEIN [2]: 6.72 G/DL
BASOPHIL [3]: 0.3%
EOSINOPHIL [3]: 0.33%
ERYTHROCYTE COUNT [3]: 7.21 x10E6/uL
HEMATOCRIT [3]: 45.77%
HEMOGLOBIN [3]: 14.17 G/DL
LEUKOCYTE COUNT [3]: 11.97 x10E3/uL
LYMPHOCYTE [3]: 84.4%
MEAN CORPUSCULAR HEMOGLOBIN [3]: 19.77 pg
MEAN CORPUSCULAR HEMOGLOBIN CONCENTRATION [3]: 30.97 G/DL
MEAN CORPUSCULAR VOLUME [3]: 63.73 fL
MONOCYTE [3]: 2.13%
NEUTROPHIL [3]: 11.97%
PLATELET COUNT [3]: 1382.67 x10E3/uL
ALANINE AMINOTRANSFERASE [3]: 31.33 u/L
ALBUMIN [3]: 3.67 G/DL
ALKALINE PHOSPHATASE [3]: 276 u/L
ASPARTATE AMINOTRANSFERASE [3]: 57 u/L
BLOOD UREA NITROGEN [3]: 11 mg/dL
CHLORIDE [3]: 96 MEQ/L
CHOLESTEROL [3]: 75.33 mg/dL
CREATINE PHOSPHOKINASE [3]: 160 u/L
CREATININE [3]: 0.47 mg/dL
GLUCOSE [3]: 189.67 mg/dL
PHOSPHORUS [3]: 13.23 mg/dL
POTASSIUM [3]: 6.77 MEQ/L
SODIUM [3]: 140.67 MEQ/L
TOTAL BILIRUBIN [3]: 0.27 mg/dL
TOTAL PROTEIN [3]: 6.63 G/DL
BASOPHIL [4]: 1.47%
EOSINOPHIL [4]: 0.3%
ERYTHROCYTE COUNT [4]: 7.12 x10E6/uL
HEMATOCRIT [4]: 45.4%
HEMOGLOBIN [4]: 14.17 G/DL
LEUKOCYTE COUNT [4]: 14.99 x10E3/uL
LYMPHOCYTE [4]: 85.6%
MEAN CORPUSCULAR HEMOGLOBIN [4]: 19.93 pg
MEAN CORPUSCULAR HEMOGLOBIN CONCENTRATION [4]: 31.23 G/DL
MEAN CORPUSCULAR VOLUME [4]: 63.83 fL
MONOCYTE [4]: 2.43%
NEUTROPHIL [4]: 9.5%
PLATELET COUNT [4]: 1502.67 x10E3/uL
ALANINE AMINOTRANSFERASE [4]: 34 u/L
ALBUMIN [4]: 3.53 G/DL
ALKALINE PHOSPHATASE [4]: 292 u/L
ASPARTATE AMINOTRANSFERASE [4]: 57 u/L
BLOOD UREA NITROGEN [4]: 10.67 mg/dL
CHLORIDE [4]: 103.67 MEQ/L
CHOLESTEROL [4]: 83.33 mg/dL
CREATINE PHOSPHOKINASE [4]: 132.67 u/L
CREATININE [4]: 0.47 mg/dL
GLUCOSE [4]: 192.67 mg/dL
PHOSPHORUS [4]: 12.77 mg/dL
POTASSIUM [4]: 7.37 MEQ/L
SODIUM [4]: 150 MEQ/L
TOTAL BILIRUBIN [4]: 0.37 mg/dL
TOTAL PROTEIN [4]: 6.43 G/DL
BASOPHIL [5]: 0.47%
EOSINOPHIL [5]: 0.27%
ERYTHROCYTE COUNT [5]: 7.09 x10E6/uL
HEMATOCRIT [5]: 45.17%
HEMOGLOBIN [5]: 13.97 G/DL
LEUKOCYTE COUNT [5]: 12.61 x10E3/uL
LYMPHOCYTE [5]: 82.37%
MEAN CORPUSCULAR HEMOGLOBIN [5]: 19.7 pg
MEAN CORPUSCULAR HEMOGLOBIN CONCENTRATION [5]: 30.9 G/DL
MEAN CORPUSCULAR VOLUME [5]: 63.73 fL
MONOCYTE [5]: 2.5%
NEUTROPHIL [5]: 13.5%
PLATELET COUNT [5]: 1416.33 x10E3/uL
ALANINE AMINOTRANSFERASE [5]: 33 u/L
ALBUMIN [5]: 3.63 G/DL
ALKALINE PHOSPHATASE [5]: 396.33 u/L
ASPARTATE AMINOTRANSFERASE [5]: 56 u/L
BLOOD UREA NITROGEN [5]: 11.33 mg/dL
CHLORIDE [5]: 96 MEQ/L
CHOLESTEROL [5]: 74.67 mg/dL
CREATINE PHOSPHOKINASE [5]: 136.67 u/L
CREATININE [5]: 0.47 mg/dL
GLUCOSE [5]: 209.33 mg/dL
PHOSPHORUS [5]: 12.83 mg/dL
POTASSIUM [5]: 6.4 MEQ/L
SODIUM [5]: 140.33 MEQ/L
TOTAL BILIRUBIN [5]: 0.27 mg/dL
TOTAL PROTEIN [5]: 6.5 G/DL
BASOPHIL [6]: 1.43%
EOSINOPHIL [6]: 0.2%
ERYTHROCYTE COUNT [6]: 6.9 x10E6/uL
HEMATOCRIT [6]: 44.03%
HEMOGLOBIN [6]: 13.87 G/DL
LEUKOCYTE COUNT [6]: 10.25 x10E3/uL
LYMPHOCYTE [6]: 84.9%
MEAN CORPUSCULAR HEMOGLOBIN [6]: 20.03 pg
MEAN CORPUSCULAR HEMOGLOBIN CONCENTRATION [6]: 31.4 G/DL
MEAN CORPUSCULAR VOLUME [6]: 63.83 fL
MONOCYTE [6]: 2.17%
NEUTROPHIL [6]: 10.6%
PLATELET COUNT [6]: 1408.33 x10E3/uL
ALANINE AMINOTRANSFERASE [6]: 37.33 u/L
ALBUMIN [6]: 3.6 G/DL
ALKALINE PHOSPHATASE [6]: 340.67 u/L
ASPARTATE AMINOTRANSFERASE [6]: 58 u/L
BLOOD UREA NITROGEN [6]: 9 mg/dL
CHLORIDE [6]: 103.33 MEQ/L
CHOLESTEROL [6]: 58 mg/dL
CREATINE PHOSPHOKINASE [6]: 132.33 u/L
CREATININE [6]: 0.43 mg/dL
GLUCOSE [6]: 190.33 mg/dL
PHOSPHORUS [6]: 13.17 mg/dL
POTASSIUM [6]: 7.2 MEQ/L
SODIUM [6]: 150.33 MEQ/L
TOTAL BILIRUBIN [6]: 0.27 mg/dL
